Key:
Assay type in all cases: binding, mouse
[1] = system: polyclonal antibodies to risperidone, bleed G1M1; assay: Indirect competitive microtiter plate immunoassay (ELISA), cross-reactivity, polyclonal anti-serum bleed G1M1; settings: polyclonal antibodies (Example 6a), relative to risperidone = 100%
Procedure: (§1) Ten female BALB/c mice were immunized i.p. with 100 μg/mouse of risperidone [9]-KLH immunogen, as prepared in Example 4, emulsified in Complete Freund's Adjuvant. The mice were boosted once, four weeks after the initial injection with 100 μg/mouse of the same immunogen emulsified in Incomplete Freund's Adjuvant. Twenty days after the boost, test bleeds containing polyclonal antibodies from each mouse were obtained by orbital bleed. The test bleeds were fractionated by centrifugation to yield anti-sera. The anti-sera from these test bleeds, which contain polyclonal antibodies to risperidone [9]-KLH immunogen, were evaluated in Examples 8a and 9.
(§2) The ELISA method for measuring risperidone concentrations was performed in polystyrene microtiter plates (Nunc MaxiSorp F8 Immunomodules) optimized for protein binding and containing 96 wells per plate. Each well was coated with risperidone [9]-BSA conjugate (prepared as in Example 5a) by adding 300 μL of risperidone [9]-BSA conjugate at 10 μg/mL in 0.05M sodium carbonate, pH 9.6, and incubating for three hours at room temperature. The wells were washed with 0.05M sodium carbonate, pH 9.6 and then were blocked with 375 μL of 5% sucrose, 0.2% sodium caseinate solution for 30 minutes at room temperature. After removal of the post-coat solution the plates were dried at 37° C. overnight.
as §2, with “[14]-BSA” for “[9]-BSA”, “5b)” for “5a)”
(§3) This procedure is to find the dilution of antibody or anti-serum to be tested for displacement as in Example 9. The ELISA method for screening risperidone antibodies (produced in Example 6) was performed with the microtiter plates that were sensitized with risperidone-BSA conjugate prepared in Examples 7a and 7b. The antibody screening assay was performed by diluting the murine serum from test bleeds (as in Example 6) containing polyclonal risperidone antibodies to 1:2,000, 1:[…] and 1:54,000 (volume/volume) in phosphate buffered saline containing 0.1% BSA and 0.01% thimerosal. […] (volume/volume) in phosphate buffered saline containing 0.1% BSA and 0.01% thimerosal. […]

[2] = system: polyclonal antibodies to risperidone, bleed G1M3; assay: Indirect competitive microtiter plate immunoassay (ELISA), cross-reactivity, polyclonal anti-serum bleed G1M3; settings: polyclonal antibodies (Example 6a), relative to risperidone = 100%
Procedure: as §1, §2
as §2, with “[14]-BSA” for “[9]-BSA”, “5b)” for “5a)”
as §3

[3] = system: polyclonal antibodies to risperidone, bleed G2M1; assay: Indirect competitive microtiter plate immunoassay (ELISA), cross-reactivity, polyclonal anti-serum bleed G2M1; settings: polyclonal antibodies (Example 6a), relative to risperidone = 100%
Procedure: as §1, §2
as §2, with “[14]-BSA” for “[9]-BSA”, “5b)” for “5a)”
as §3

[4] = system: polyclonal antibodies to risperidone, bleed G2M5; assay: Indirect competitive microtiter plate immunoassay (ELISA), cross-reactivity, polyclonal anti-serum bleed G2M5; settings: polyclonal antibodies (Example 6a), relative to risperidone = 100%
Procedure: as §1, §2
as §2, with “[14]-BSA” for “[9]-BSA”, “5b)” for “5a)”
as §3

[5] = system: monoclonal antibody to risperidone 4B9-21; assay: Indirect competitive microtiter plate immunoassay (ELISA), cross-reactivity, monoclonal antibody 4B9-21; settings: monoclonal antibody number 4B9-21 (Example 6b); relative to risperidone = 100%
Procedure: (§4) Mice from example 6a that were immunized with risperidone [9]-KLH prepared in 4 were used to produce monoclonal antibodies. For monoclonal antibodies starting three days before the fusion, the mice were injected i.p. with 400 μg (3 days before fusion), 200 μg (2 days before fusion), and 200 μg (1 day before fusion) of risperidone [9]-KLH in PBS/DMSO prepared in example 4. Spleen cells were isolated from the selected mice and fused with 2×10^7 SP2/0 cells with 50% polyethylene glycol 1500 according to the method of Coligan, J. E. et al., eds., Current Protocols in Immunology, 2.5.1-2.5.8, (1992), Wiley & Sons, NY. The fused cells were plated on ten 96-well plates in DMEM/F12 supplemented with 20% FetalClone I, 2% L-glutamine (100 mM) and 2% 50× HAT. Two to three weeks later, the hybridoma supernatant was assayed for the presence of anti-risperidone antibodies by ELISA (as in example 8b). Cells from the wells that gave positive ELISA results (example 8b) were expanded to 24 well plates. Clones positive by ELISA were subcloned twice by limiting dilution according to the method disclosed in Coligan, J. E. et al., eds., Current Protocols in Immunology, 2.5.8-2.5.17, 1992, Wiley & Sons, NY. Hybridoma culture supernatants containing monoclonal antibody from selected subclones were confirmed for risperidone binding by a competitive ELISA (example 9). […]

[6] = system: monoclonal antibody to risperidone 5D5-3; assay: Indirect competitive microtiter plate immunoassay (ELISA), cross-reactivity, monoclonal antibody 5D5-3; settings: monoclonal antibody number 5D5-3 (Example 6b); relative to risperidone = 100%
Procedure: as §4

[7] = system: antibodies to risperidone (pool of antibodies); assay: Competitive immunoassay / screening with the pool of antibodies to risperidone
Procedure: The present invention relates to novel antibodies and monoclonal antibodies to risperidone and paliperidone. The antisera of the invention can be conveniently produced by immunizing host animals with the immunogens of this invention. Suitable host animals include rodents, such as, for example, mice, rats, rabbits, guinea pigs and the like, or higher mammals such as goats, sheep, horses and the like. […]
The ELISA method for determining IC50 values and cross-reactivity was performed with the microtiter plates that were sensitized with risperidone-BSA conjugates as described in Examples 7a and 7b. […] The assays were all performed by diluting the concentration of the anti-sera or monoclonal antibodies in each of the wells to the titer determined in Example 8a. […] Following the incubation for color development, 50 μL of stop solution (1.5% sodium fluoride in di H2O) was added to each well to stop the color development and after 20 seconds of shaking the absorbance was determined at 650 nm (Molecular Devices Plate Reader). The amount of antibody in a well was proportional to the absorbance measured and inversely proportional to the amount of risperidone in the sample. The IC50's of risperidone and paliperidone were determined by constructing dose-response curves with the absorbance in the wells plotted versus analyte concentration in the wells. […]

Cc1nc2n(c(=O)c1CCN1CCC(c3noc4cc(F)ccc34)CC1)CC(O)CC2 (stereo not shown) [7-hydroxy-risperidone]
Cross-reactivity of competitive immunoassay [1]: 50%
Cross-reactivity of competitive immunoassay [2]: 66%
Cross-reactivity of competitive immunoassay [3]: 65%
Cross-reactivity of competitive immunoassay [4]: 69%
Cross-reactivity of competitive immunoassay [5]: 30%
Cross-reactivity of competitive immunoassay [6]: 39%

Fc1ccc2c(C3CCNCC3)noc2c1 [N-dealkyl-risperidone]
Cross-reactivity of competitive immunoassay [1]: 0.02%
Cross-reactivity of competitive immunoassay [2]: 0.07%
Cross-reactivity of competitive immunoassay [3]: 0.09%
Cross-reactivity of competitive immunoassay [4]: 0.1%

Cc1nc2n(c(=O)c1CCN1CCC(c3noc4cc(F)ccc34)CC1)CCCC2O (stereo not shown) [Paliperidone, paliperidone]
Cross-reactivity of competitive immunoassay [1]: 81%
Cross-reactivity of competitive immunoassay [2]: 80%
Cross-reactivity of competitive immunoassay [3]: 98%
Cross-reactivity of competitive immunoassay [4]: 81%
binding of the antibodies to the compound (screening) ([7]; antibodies from immunized mice screened against the compound): substantial binding
percent cross-reactivities relative to risperidone ([7]; measured with this pool of antibodies, ratio of IC50 risperidone to IC50 paliperidone): 100±20%

Cc1nc2n(c(=O)c1CCN1CCC(c3noc4cc(F)ccc34)CC1)CCCC2 [Risperidone, risperidone]
Cross-reactivity of competitive immunoassay [1]: 100%
Cross-reactivity of competitive immunoassay [2]: 100%
Cross-reactivity of competitive immunoassay [3]: 100%
Cross-reactivity of competitive immunoassay [4]: 100%
Cross-reactivity of competitive immunoassay [5]: 100%
Cross-reactivity of competitive immunoassay [6]: 100%

— patent US8450461B2, “Risperidone immunoassay” (Saladax Biomedical Inc., priority 2010, dated 2013)
